Reference: patent US8334255B2, “Peptide and treatment for HIV-1 infection” (Thomas Jefferson University, priority 2006, dated 2012)
Primed or numbered codes have the meaning given here. Ends that are not written are not given here. FITC′ = not defined here

How the values were obtained:
[1] = tested on: H9 and MT-2 cells; experiment: Cellular uptake and intracellular localization of FITC-tagged peptide by fluorescence microscopy; format: cell-based
Experimental: The peptide of amino acid sequence SEQ ID NO:2 was synthesized with a C-terminal fluoroscein isothiocyanate (FTIC) tag. The FITC tag enables fluorescence microscopy of living cells in order to evaluate cellular uptake and intracellular localization of the peptide. Cultures of H9 and MT-2 cells were grown in media as recommended by the American Tissue Culture Collection (ATCC) and each culture was treated once in culture with of the FTIC-tagged peptide of the amino acid sequence SEQ ID NO:2. The cells were then photographed in the culture dish with an inverted fluorescence microscopy at various time points. […] The intracellular distribution was both punctate and diffuse in the cytoplasm but little or no FTIC-tagged peptide was observed within the nuclei of cells. This distribution was sustained for 24-48 hours and diminished by over 50% by 72 hours post-treatment.
To highlight the position of the nucleus, H9 and MT-2 cells treated with the FTIC-tagged peptide of the amino acid sequence SEQ ID NO:2 as described above, fixed with 2% paraformaldehyde, permeabilized with 0.4% Triton X-100 and stained with the DNA selective stain 4′,6-diamidino-2-phenylindole (DAPI).

[2] = tested on: HIV-1IIIB virus; experiment: Low multiplicity of infection acute infection assay in MT-2 cells, reverse transcriptase assay; conditions: for delay of the onset of virus production: MT-2 cells, RT assay
[3] = tested on: HIV-1NL4-3 Viruses; experiment: Viral infectivity assay in peripheral blood mononuclear cells, p24 Gag ELISA; format: cell-based; conditions: PBMCs infected with HIV-1NL4-3, MOI 0.1; p24 antigen level by ELISA
Experimental: Various truncated analogues of the peptide of amino acid sequence SEQ ID NO:36 were prepared to determine the minimal peptide necessary to inhibit viral infectivity. The compounds were tested in a viral infectivity assay in which PBMCs were infected with HIV-1NLA-3 viruses (MOI: 0.1). The amounts of virus produced were monitored by detecting the HIV-1 p24 antigen. level in the cell culture using p24 Gag ELISA (Zeptometrics).

[4] = Physicochemical properties of the peptide (isoelectric point, solubility)
[5] = tested on: HIV-1NL4-3 Viruses; experiment: Viral infectivity assay in human T lymphoblastoid H9 cell line, p24 antigen ELISA; format: cell-based; conditions: H9 cells, MOI 0.01, peptide 50 μM, compared to untreated cells or control peptide
Experimental: A viral infectivity assay was performed in the presence or absence of the peptides of amino acid sequence SEQ ID NO:2 and SEQ ID NO:36, and the control peptide of amino acid sequence SEQ ID NO:35 using HIV-1NL4-3 viruses in H9 cells and assaying HIV-1 p24 antigen. The procedure was performed essentially as described by B. Yang, et al., J. Bio. Chem., 2003; 278(8), 6596-602, which describes the method as follows. H9 cells (1×10^6) are mixed with HIV-1NL4-3 viruses at a multiplicity of infection of 0.01. After incubation at 37° C. for 5 hours, the excess viruses were removed, and the cells are cultured in the presence of RPMI 1640 medium plus […] fetal bovine serum with or without the peptides at a concentration of 50 μM. Every 3-4 days the supernatants are harvested and refreshed. The effects of the peptides on viral infectivity are monitored by detecting the HIV-1 p24 antigen level in the cell culture supernatant via ELISA.

[6] = living H9 and MT-2 cells, single treatment

FTIC-tagged peptide of the amino acid sequence SEQ ID NO:2: peptide of amino acid sequence SEQ ID NO:2 synthesized with a C-terminal fluoroscein isothiocyanate (FTIC) tag (YGRKKRRQRRRGQGGSPLPRSV-{FITC′})
intracellular localization (fixed cells, DAPI nuclear stain) ([1]; H9 and MT-2 cells, 24 h after a single treatment): localized in the cytoplasm but was not present in the nucleus
diminution of intracellular peptide distribution ([1]; by 72 hours post-treatment): over 50%
time after which fluorescence within cells was detected [1, 6]: 5 ninutes
time for which the intracellular distribution was sustained [1, 6]: 24 to 48 h
time until intracellular localization was apparent in all cells [1, 6]: ≤ 30 min
peptide observed within the nuclei of cells ([1]; living H9 and MT-2 cells, distribution punctate and diffuse in the cytoplasm): little or no

YGRKKRRQRRRGDLGEQHFKGLVL [SEQ ID NO:35]
effect on virus production (in words) ([2]; MOI 0.003, peptide 50 μM): somewhat enhance virus production
effect on virus production (in words) ([2]; MOI 0.01, peptide 50 μM): did not inhibit virus production
effect on virus production (in words) ([2]; MOI 0.03, peptide 50 μM): did not inhibit virus production
effect on virus production (in words) ([2]; MOI 0.1, peptide 50 μM): did not inhibit virus production

YGRKKRRQRRRGGGSPLPRSV [SEQ ID NO: 74]
Activity (inhibiting HIV-1NL4-3 viruses in viral infectivity assay) [3]: Inactive

YGRKKRRQRRRGQGGSPLPRSV [SEQ ID NO:2]
isoelectric point (pI) [4]: 12.39
solubility [4]: ~1000 µg/mL

YGRKKRRQRRRGSNQGGSPLPRS [SEQ ID NO: 75]
Activity (inhibiting HIV-1NL4-3 viruses in viral infectivity assay) [3]: Inactive

YGRKKRRQRRRGSNQGGSPLPRSV [SEQ ID NO:36]
effect on virus production (in words) ([2]; MOI 0.003, peptide 50 μM): did not appear to have any effect upon virus production
delay of the onset of virus production ([2]; MOI 0.01, peptide 50 μM): 3 to 4 days
delay of the onset of virus production ([2]; MOI 0.03, peptide 50 μM): 2 to 3 days
delay of the onset of virus production ([2]; MOI 0.1, peptide 50 μM): 4 to 5 days
effect on viral replication (HIV-1 p24 antigen in supernatant) [5]: inhibited viral replication
